The text below walks through data of patent US12630600B2 (MEDIMMUNE LIMITED, priority 2022, dated 2026).

Starred links: 1 amine or outer side, 2 acyl side, 3 side chain; linkers in the order of their positions; H or OH if unused. Non-standard residues stand in square brackets, D forms with d. Residues, ends and D or L forms follow the SMILES beside them. Groups on a side chain read outwards from the residue. *: point of attachment. C20 diacid = O=C(O)CCCCCCCCCCCCCCCCCCC(=O)*; C18 diacid = O=C(O)CCCCCCCCCCCCCCCCC(=O)*; γGlu = O=C(O)[C@H](CCC(=O)[*:2])N[*:1]; αMeF = C[C@](N)(Cc1ccccc1)C(=O)O; AEEA = NCCOCCOCC(=O)O; Aib = CC(C)(N)C(=O)O

The target in the assay is T1, human GLP-1 receptor (hGLP-1R) (Homo sapiens, UniProt P43220).
T1 construct: expressed in transfected cells; host or cells: CHO
Kind of assay: cAMP production (HTRF) in CHO cells expressing human GLP-1 receptor. In kind it is cell-based. As to conditions: % GLP-1R activity relative to GLP-1 / % GlucR activity relative to glucagon. As for the experimental part: Cells were re-suspended in assay buffer at a batch-dependent optimized concentration (typically hGLP-1R cells at 1×10^5 cells/mL, hGCGR cells at 2×10^5 cells/mL).
Cells were added to the assay plate using a multidrop dispenser and incubated at room temperature for 30 minutes before measuring the cAMP level using a cAMP dynamic 2 homogeneous time resolved Fluorescence (HTRF) kit (Cisbio Bioassays #62AM4PEJ) following the two-step protocol as per manufacturer's recommendations. In brief, anti-cAMP cryptate (donor fluorophore) and cAMP-d2 (acceptor fluorophore) were made up separately by diluting each 1 in 20 in conjugate and lysis buffer provided in the kit. Anti-cAMP cryptate was added to all wells of the assay plate, followed by cAMP-d2 added to all wells except non-specific binding (NSB) wells (to which conjugate and lysis buffer was added).
Data was transformed to % Delta F as described in the manufacturer's guidelines and analyzed by 4-parameter logistic fit to determine EC50 values.
(In general: Cyclic AMP is a second messenger, typically raised through Gs and lowered through Gi signalling.)

T1 sequence (P43220 24-463): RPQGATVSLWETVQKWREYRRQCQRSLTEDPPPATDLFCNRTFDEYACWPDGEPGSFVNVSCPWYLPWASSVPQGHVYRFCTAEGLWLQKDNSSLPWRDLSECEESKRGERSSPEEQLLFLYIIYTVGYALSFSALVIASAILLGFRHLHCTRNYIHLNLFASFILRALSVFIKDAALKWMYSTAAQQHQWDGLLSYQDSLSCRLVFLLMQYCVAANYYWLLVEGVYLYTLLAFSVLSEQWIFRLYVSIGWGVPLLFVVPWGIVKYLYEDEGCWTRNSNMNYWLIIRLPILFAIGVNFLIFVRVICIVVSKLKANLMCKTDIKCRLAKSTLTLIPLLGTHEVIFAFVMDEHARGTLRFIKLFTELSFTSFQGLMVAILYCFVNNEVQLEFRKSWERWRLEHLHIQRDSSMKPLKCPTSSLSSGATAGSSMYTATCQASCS

Take `CC[C@H](C)[C@H](NC(=O)[C@H](Cc1c[nH]c2ccccc12)NC(=O)[C@H](CCCCNC(=O)COCCOCCNC(=O)COCCOCCNC(=O)CC[C@H](NC(=O)CCCCCCCCCCCCCCCCCCC(=O)O)C(=O)O)NC(=O)[C@@H](NC(=O)[C@H](Cc1ccccc1)NC(=O)[C@H](CC(=O)O)NC(=O)[C@H](CCC(N)=O)NC(=O)[C@H](C)NC(=O)[C@H](C)NC(=O)[C@H](CCC(N)=O)NC(=O)[C@H](CO)NC(=O)[C@H](CC(=O)O)NC(=O)[C@H](CC(C)C)NC(=O)[C@](C)(Cc1ccccc1)NC(=O)[C@H](CCCCN)NC(=O)[C@H](CO)NC(=O)[C@@H](NC(=O)[C@H](CC(=O)O)NC(=O)[C@H](CO)NC(=O)[C@@H](NC(=O)[C@](C)(Cc1ccccc1)NC(=O)[C@H](CO)NC(=O)CNC(=O)[C@H](Cc1c[nH]cn1)NC(=O)C(C)(C)NC(=O)[C@@H](N)Cc1c[nH]cn1)[C@@H](C)O)C(C)C)C(C)C)C(=O)N[C@@H](C)C(=O)N[C@@H](CC(N)=O)C(=O)N[C@H](C(N)=O)[C@@H](C)O` [Peptide 356] (H-H[Aib]HGS[αMeF]TSDVSK[αMeF]LDSQAAQDFVK([AEEA-AEEA-γGlu-C20 diacid])WIANT-NH2): the “% Relative Potency Ratio” value (Table 8) amounted to 2.1.

For the compound `CC[C@H](C)[C@H](NC(=O)[C@H](Cc1c[nH]c2ccccc12)NC(=O)[C@H](CCCCNC(=O)COCCOCCNC(=O)COCCOCCNC(=O)CC[C@H](NC(=O)CC[C@H](NC(=O)CCCCCCCCCCCCCCCCCCC(=O)O)C(=O)O)C(=O)O)NC(=O)[C@@H](NC(=O)[C@](C)(Cc1ccccc1)NC(=O)[C@H](CC(=O)O)NC(=O)[C@H](CCC(N)=O)NC(=O)[C@H](C)NC(=O)[C@H](C)NC(=O)[C@H](CCCNC(=N)N)NC(=O)[C@H](CO)NC(=O)[C@H](CC(=O)O)NC(=O)[C@H](CC(C)C)NC(=O)[C@](C)(Cc1ccccc1)NC(=O)[C@H](CCCCN)NC(=O)[C@H](CO)NC(=O)[C@@H](NC(=O)[C@H](CC(=O)O)NC(=O)[C@H](CO)NC(=O)[C@@H](NC(=O)[C@](C)(Cc1ccccc1)NC(=O)[C@H](CO)NC(=O)CNC(=O)[C@H](Cc1c[nH]cn1)NC(=O)C(C)(C)NC(=O)[C@@H](N)Cc1c[nH]cn1)[C@@H](C)O)C(C)C)C(C)C)C(=O)N[C@@H](C)C(=O)N[C@@H](CC(N)=O)C(=O)N[C@H](C(N)=O)[C@@H](C)O` [Peptide 374] (H-H[Aib]HGS[αMeF]TSDVSK[αMeF]LDSRAAQD[αMeF]VK([AEEA-AEEA-γGlu-γGlu-C20 diacid])WIANT-NH2; N-terminus assumed), where the note is “Table 8”, the “% Relative Potency Ratio” value came to 1.2.

Consider `CC[C@H](C)[C@H](NC(=O)[C@H](CO)NC(=O)[C@H](CCCCNC(=O)COCCOCCNC(=O)COCCOCCNC(=O)CC[C@H](NC(=O)CCCCCCCCCCCCCCCCC(=O)O)C(=O)O)NC(=O)[C@@H](NC(=O)[C@](C)(Cc1ccccc1)NC(=O)[C@H](CC(=O)O)NC(=O)[C@H](CCC(N)=O)NC(=O)[C@H](C)NC(=O)[C@H](C)NC(=O)[C@H](CCCNC(=N)N)NC(=O)[C@H](CO)NC(=O)[C@H](CC(=O)O)NC(=O)[C@H](CC(C)C)NC(=O)[C@](C)(Cc1ccccc1)NC(=O)[C@H](CCCCN)NC(=O)[C@H](CO)NC(=O)[C@@H](NC(=O)[C@H](CC(=O)O)NC(=O)[C@H](CO)NC(=O)[C@@H](NC(=O)[C@](C)(Cc1ccccc1)NC(=O)[C@H](CO)NC(=O)CNC(=O)[C@H](Cc1c[nH]cn1)NC(=O)C(C)(C)NC(=O)[C@@H](N)Cc1c[nH]cn1)[C@@H](C)O)C(C)C)C(C)C)C(=O)N[C@@H](C)C(=O)N[C@@H](CC(N)=O)C(=O)N[C@H](C(N)=O)[C@@H](C)O` [Peptide 379] (H-H[Aib]HGS[αMeF]TSDVSK[αMeF]LDSRAAQD[αMeF]VK([AEEA-AEEA-γGlu-C18 diacid])SIANT-NH2), for which the “% Relative Potency Ratio” value (Table 8) was 2.4.

Turning to `CC[C@H](C)[C@H](NC(=O)[C@H](Cc1c[nH]c2ccccc12)NC(=O)[C@H](CCCCNC(=O)CC[C@H](NC(=O)CCCCCCCCCCCCCCCCCCC(=O)O)C(=O)O)NC(=O)[C@@H](NC(=O)[C@H](Cc1ccccc1)NC(=O)[C@H](CC(=O)O)NC(=O)[C@H](CCC(N)=O)NC(=O)[C@H](C)NC(=O)[C@H](C)NC(=O)[C@H](CCC(N)=O)NC(=O)[C@H](CO)NC(=O)[C@H](CC(=O)O)NC(=O)[C@H](CC(C)C)NC(=O)[C@](C)(Cc1ccccc1)NC(=O)[C@H](CCCCN)NC(=O)[C@H](CO)NC(=O)[C@@H](NC(=O)[C@H](CC(=O)O)NC(=O)[C@H](CO)NC(=O)[C@@H](NC(=O)[C@H](Cc1ccccc1)NC(=O)[C@@H](NC(=O)CNC(=O)[C@H](Cc1c[nH]cn1)NC(=O)C(C)(C)NC(=O)[C@@H](N)Cc1c[nH]cn1)[C@@H](C)O)[C@@H](C)O)C(C)C)C(C)C)C(=O)N[C@@H](C)C(=O)N[C@@H](CC(N)=O)C(=O)N[C@H](C(N)=O)[C@@H](C)O` [Peptide 347], the “% Relative Potency Ratio” value (Table 8) is given as 0.2.

Consider `CC[C@H](C)[C@H](NC(=O)[C@H](Cc1c[nH]c2ccccc12)NC(=O)[C@H](CCCCNC(=O)COCCOCCNC(=O)COCCOCCNC(=O)CC[C@H](NC(=O)CC[C@H](NC(=O)CCCCCCCCCCCCCCCCC(=O)O)C(=O)O)C(=O)O)NC(=O)[C@@H](NC(=O)[C@](C)(Cc1ccccc1)NC(=O)[C@H](CC(=O)O)NC(=O)[C@H](CCC(N)=O)NC(=O)[C@H](C)NC(=O)[C@H](C)NC(=O)[C@H](CCCNC(=N)N)NC(=O)[C@H](CO)NC(=O)[C@H](CC(=O)O)NC(=O)[C@H](CC(C)C)NC(=O)[C@](C)(Cc1ccccc1)NC(=O)[C@H](CCCCN)NC(=O)[C@H](CO)NC(=O)[C@@H](NC(=O)[C@H](CC(=O)O)NC(=O)[C@H](CO)NC(=O)[C@@H](NC(=O)[C@](C)(Cc1ccccc1)NC(=O)[C@H](CO)NC(=O)CNC(=O)[C@H](Cc1c[nH]cn1)NC(=O)C(C)(C)NC(=O)[C@@H](N)Cc1c[nH]cn1)[C@@H](C)O)C(C)C)C(C)C)C(=O)N[C@@H](C)C(=O)N[C@@H](CC(N)=O)C(=O)N[C@H](C(N)=O)[C@@H](C)O` [Peptide 371] (H-H[Aib]HGS[αMeF]TSDVSK[αMeF]LDSRAAQD[αMeF]VK([AEEA-AEEA-γGlu-γGlu-C18 diacid])WIANT-NH2; N-terminus assumed), for which, under “Table 8”, the “% Relative Potency Ratio” value worked out at 0.9.

Consider “H(Aib)HGS(αMePhe)TSDVSKK(O2OC-O2OC-γE-C18diacid)13LDSRAAQD(αMePhe)VQ(Aib)IANT-amide [Peptide 406]”, for which the “% Relative Potency Ratio” value (Table 10) worked out at 31.6.

Consider `CC[C@H](C)[C@H](NC(=O)[C@H](Cc1c[nH]c2ccccc12)NC(=O)[C@H](CCCCNC(=O)CC[C@H](NC(=O)CCCCCCCCCCCCCCCCCCC(=O)O)C(=O)O)NC(=O)[C@@H](NC(=O)[C@H](Cc1ccccc1)NC(=O)[C@H](CC(=O)O)NC(=O)[C@H](CCC(N)=O)NC(=O)[C@H](C)NC(=O)[C@H](C)NC(=O)[C@H](CCC(N)=O)NC(=O)[C@H](CO)NC(=O)[C@H](CC(=O)O)NC(=O)[C@H](CC(C)C)NC(=O)[C@](C)(Cc1ccccc1)NC(=O)[C@H](CCCCN)NC(=O)[C@H](CO)NC(=O)[C@@H](NC(=O)[C@H](CC(=O)O)NC(=O)[C@H](CO)NC(=O)[C@@H](NC(=O)[C@](C)(Cc1ccccc1)NC(=O)[C@H](CO)NC(=O)CNC(=O)[C@H](Cc1c[nH]cn1)NC(=O)C(C)(C)NC(=O)[C@@H](N)Cc1c[nH]cn1)[C@@H](C)O)C(C)C)C(C)C)C(=O)N[C@@H](C)C(=O)N[C@@H](CC(N)=O)C(=O)N[C@H](C(N)=O)[C@@H](C)O` [Peptide 354], for which the “% Relative Potency Ratio” value (Table 8) stood at 1.6.
